The values below come from PMC12782889, “A GmNRF5a–GmCERK1–GmCAK1 module mediates chitin/chitosan‐triggered immune response in soybean” (Journal of Integrative Plant Biology, 2025).

This experiment deals with soybean leaf discs (ROS burst). The experiment can be described thus: Luminol-based ROS burst assay in soybean leaf discs. Format: cell-based, soybean (Glycine max). As to conditions: 50 mg/L, leaf discs of soybean Williams, dH2O negative control. Here is the method: To measure the oxidation burst, leaf discs (Ø 0.5 cm) collected from 2-week-old soybean (cultivar Williams) were floated overnight in 200 μL sterile H2O in a 96-well plate. The H2O was replaced with 200 μL reaction buffer containing luminol/peroxidase ([…] luminol, 10 mg/mL peroxidase) and chitooligosaccharides treatments (50 mg/L). flg22 was used as a positive control. The luminescence was measured using a GLOMAX96 microplate luminometer (Promega, Madison, WI, USA). The experiments for MAPK activation were carried out as described previously ([[…] et al., 2014]). The MAPK activation was determined by immunoblots with anti-phospho-p44/42 MAPK antibody (#4370; Cell Signaling, Boston, MA, USA).

For `CC(=O)N[C@@H]1[C@@H](O)[C@H](O[C@@H]2O[C@H](CO)[C@@H](O[C@@H]3O[C@H](CO)[C@@H](O[C@@H]4O[C@H](CO)[C@@H](O[C@@H]5O[C@H](CO)[C@@H](O)[C@H](O)[C@H]5NC(C)=O)[C@H](O)[C@H]4NC(C)=O)[C@H](O)[C@H]3NC(C)=O)[C@H](O)[C@H]2NC(C)=O)[C@@H](CO)O[C@H]1O` [Chitin oligosaccharide (dp5), chitin oligosaccharide], the ROS burst result is on record as “stronger ROS burst than that of CTOS (dp4)”.
